We go through ten compounds from PubChem BioAssay AID328 (DTP/NCI, 2004).

“And” between values parts separate entries of the source, which are not always exact repeats. Identical values can stand only once. Toxic doses and inconclusive results are not listed.

This test relates to BDF1 mice, P388 leukemia ip, median survival T/C. The experiment in a line: NCI In Vivo Anticancer Drug Screen. Data for tumor model P388 Leukemia (intraperitoneal) in B6D2F1 (BDF1) mice. The settings on record: endpoint: median survival time, higher = longer survival. The essentials:
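Mice carrying the transplantable tumour receive compound or vehicle. Survival is followed in each arm, and the treated measure is divided by the vehicle measure.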

[1] abbreviates: dose: 25.0 mg/kg/injection, schedule: Q04DX003 (ip), vehicle: saline.
Setting [2] is: dose: 50.0 mg/kg/injection, schedule: Q04DX003 (ip), vehicle: saline.
Setting [3] is: dose: 50.0 mg/kg/injection, schedule: Q04DX003 (ip), vehicle: saline with Tween-80.
The mark [4] stands for this setting: dose: 100.0 mg/kg/injection, schedule: Q04DX003 (ip), vehicle: saline with Tween-80.
Setting [5] is: dose: 200.0 mg/kg/injection, schedule: Q04DX003 (ip), vehicle: saline with Tween-80.
Setting [6] is: dose: 25.0 mg/kg/injection, schedule: Q04DX003 (ip), vehicle: saline with Tween-80.
The mark [7] stands for this setting: dose: 100.0 mg/kg/injection, schedule: Q04DX003 (ip), vehicle: Klucel (hydroxypropylcellulose) (HPC).
[8] abbreviates: dose: 200.0 mg/kg/injection, schedule: Q04DX003 (ip), vehicle: Klucel (hydroxypropylcellulose) (HPC).

Consider `O=C(NP(=O)(N1CC1)N1CC1)OCc1ccccc1`, for which the T/C runs as follows: (dose: 100.0 mg/kg/injection, schedule: Q01DX009 (ip), vehicle: alcohol) 100 % of control; (dose: 100.0 mg/kg/injection, schedule: Q04DX003 (ip), vehicle: alcohol) 95 % of control; (dose: 200.0 mg/kg/injection, schedule: Q01DX009 (ip), vehicle: alcohol) 100 % of control; (dose: 200.0 mg/kg/injection, schedule: Q04DX003 (ip), vehicle: alcohol) 110 % of control; (dose: 400.0 mg/kg/injection, schedule: Q01DX009 (ip), vehicle: alcohol) 86 % of control; (dose: 400.0 mg/kg/injection, schedule: Q04DX003 (ip), vehicle: alcohol) 100 % of control.
With `O=C1CCC(=O)N1CO`, the T/C was 109 % of control under setting [1]; 95 % of control (dose: 44.0 mg/kg/injection, schedule: Q04DX003 (ip), vehicle: saline); 104 % of control under setting [2]; 109 % of control (dose: 66.0 mg/kg/injection, schedule: Q04DX003 (ip), vehicle: saline); 118 % of control (dose: 100.0 mg/kg/injection, schedule: Q04DX003 (ip), vehicle: saline); 159 % of control (dose: 300.0 mg/kg/injection, schedule: Q04DX003 (ip), vehicle: saline).
Turning to `Cc1cc(=O)[nH]c2c1CCC2`, the T/C is, setting by setting: (dose: 50.0 mg/kg/injection, schedule: Q01DX009 (ip), vehicle: saline with Tween-80) 109 % of control; under setting [3], 100 % of control; (dose: 100.0 mg/kg/injection, schedule: Q01DX009 (ip), vehicle: saline with Tween-80) 90 % of control; under setting [4], 100 % of control; (dose: 200.0 mg/kg/injection, schedule: Q01DX009 (ip), vehicle: saline with Tween-80) 104 % of control; under setting [5], 100 % of control.
Take `CN(C)CCCN1c2ccccc2Sc2ccc(Cl)cc21`: the T/C is 109 % of control (dose: 6.25 mg/kg/injection, schedule: Q01DX009 (ip), vehicle: saline); 109 % of control (dose: 12.5 mg/kg/injection, schedule: Q01DX009 (ip), vehicle: saline); 104 % of control (dose: 12.5 mg/kg/injection, schedule: Q04DX003 (ip), vehicle: saline with Tween-80); 106 % of control (dose: 12.5 mg/kg/injection, schedule: Q04DX003 (ip), vehicle: saline); 108 % of control under setting [6]; 89 % of control under setting [1]. Besides, the T/C under setting [2] is 112 % of control.
As for `O=C(/C=C/c1ccc2c(c1)OCO2)c1ccc(Cl)cc1`, the T/C is 100 % of control under setting [3], 100 % of control under setting [4] and 100 % of control under setting [5].
As to `CCCCCCCCCCCCCCCCCOC(=O)CCCCCCCCCCCCCCCCC`, the T/C under setting [6] is 105 % of control, the T/C under setting [3] is 105 % of control and the T/C under setting [4] was 100 % of control.
`OC12C3CCCC1CCCC2CCC3` (stereo unspecified): the T/C is, setting by setting: under setting [7], 100 % of control and 108 % of control; (dose: 100.0 mg/kg/injection, schedule: Q04DX003 (ip), vehicle: saline sonified) 108 % of control; under setting [8], 91 % of control and 100 % of control; (dose: 200.0 mg/kg/injection, schedule: Q04DX003 (ip), vehicle: saline sonified) 90 % of control and 108 % of control; (dose: 400.0 mg/kg/injection, schedule: Q04DX003 (ip), vehicle: Klucel (hydroxypropylcellulose) (HPC)) 100 % of control; (dose: 400.0 mg/kg/injection, schedule: Q04DX003 (ip), vehicle: saline sonified) 109 % of control and 108 % of control.
`C[C@]12CCC(=O)C=C1CC[C@@H]1C2=CC[C@@]2(C)[C@H]1CC[C@]2(C)O`: the T/C reads like this: (dose: 0.78 mg/kg/injection, schedule: Q01DX009 (ip), vehicle: Klucel (hydroxypropylcellulose) (HPC)) 100 % of control; (dose: 1.56 mg/kg/injection, schedule: Q01DX009 (ip), vehicle: Klucel (hydroxypropylcellulose) (HPC)) 90 % of control; (dose: 3.12 mg/kg/injection, schedule: Q01DX009 (ip), vehicle: Klucel (hydroxypropylcellulose) (HPC)) 86 % of control; (dose: 50.0 mg/kg/injection, schedule: Q01DX009 (ip), vehicle: Klucel (hydroxypropylcellulose) (HPC)) 87 % of control; under setting [7], 109 % of control; (dose: 200.0 mg/kg/injection, schedule: Q01DX009 (ip), vehicle: Klucel (hydroxypropylcellulose) (HPC)) 87 % of control. For the same compound, under setting [8], the T/C was 104 % of control.
On to `CSCCCNC(=O)c1csc(-c2csc(CCNC(=O)c3ccccc3)n2)n1`, for which the T/C (dose: 8.0 mg/kg/injection, schedule: Q01DX009 (ip), vehicle: saline) was 100 % of control; the T/C (dose: 16.0 mg/kg/injection, schedule: Q01DX009 (ip), vehicle: saline) was 100 % of control; the T/C (dose: 32.0 mg/kg/injection, schedule: Q01DX009 (ip), vehicle: saline) was 110 % of control; the T/C (dose: 64.0 mg/kg/injection, schedule: Q01DX009 (ip), vehicle: saline) was 120 % of control.
On to `CCCCCCCC(O)CCCCCCC`, for which the T/C runs as follows: (dose: 100.0 mg/kg/injection, schedule: Q01DX009 (ip), vehicle: other) 115 % of control; (dose: 200.0 mg/kg/injection, schedule: Q01DX009 (ip), vehicle: other) 110 % of control; (dose: 400.0 mg/kg/injection, schedule: Q01DX009 (ip), vehicle: other) 100 % of control.
